IC50 data for nine compounds are collected here from patent US20260242419A1, “A CYCLIC PEPTIDE FOR TRAPPING INTERLEUKIN-1 BETA” (Merck Sharp & Dohme LLC, priority 2023, published 2026).

pIC50: −log10 of the molar value. Starred links: 1 amine or outer side, 2 acyl side, 3 side chain; linkers in the order of their positions; H or OH if unused. Non-standard residues stand in square brackets, D forms with d. Residues, ends and D or L forms follow the SMILES beside them. Trp(βS-Me,4-F) = C[C@@H](c1c[nH]c2cccc(F)c12)[C@H](N)C(=O)O; Bip(4'-COOH) = N[C@@H](Cc1ccc(-c2ccc(C(=O)O)cc2)cc1)C(=O)O; dPro(4R-Bzl(4-F)) = O=C(O)[C@H]1C[C@@H](Cc2ccc(F)cc2)CN1; Ala(pyrimidin-5-yl) = N[C@@H](Cc1cncnc1)C(=O)O; Phe(4-COOH) = N[C@@H](Cc1ccc(C(=O)O)cc1)C(=O)O; dαMeDab = C[C@](CCN[*:3])(N[*:1])C(=O)[*:2]; Pro(cis-4-F) = O=C(O)[C@@H]1C[C@H](F)CN1; X10 = C[C@@](CCN)(N[*:1])C(=O)[*:2]; aIle = CC[C@@H](C)[C@H](N)C(=O)O; 4Pal = N[C@@H](Cc1ccncc1)C(=O)O; αMeK = C[C@](N)(CCCCN)C(=O)O; hSer = N[C@@H](CCO)C(=O)O; Dab = NCC[C@H](N)C(=O)O; Aib = CC(C)(N)C(=O)O; Sar = CNCC(=O)O

Broadly, the pIC50 is the IC50 on a negative log10 scale, so that one unit is a factor of ten.

The experiment deals with T1, IL-1β (Homo sapiens, UniProt P01584).
T1 construct: purchased BioLegend 579404
T1 sequence (P01584 117-269): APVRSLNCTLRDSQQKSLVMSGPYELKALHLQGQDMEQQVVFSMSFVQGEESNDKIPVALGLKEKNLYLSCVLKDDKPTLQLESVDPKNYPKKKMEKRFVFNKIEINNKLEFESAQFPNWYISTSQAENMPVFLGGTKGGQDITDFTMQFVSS
As to the kind of experiment: IL-6 assay in MRC5 cells: inhibition of IL-1β induced IL-6 secretion (AlphaLISA). Type of experiment: cell-based. The settings on record: inhibition of IL-1β induced IL-6 secretion in MRC5 cells; read-out: MRC5 IC50. A digest of the protocol:
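Compound was pre-incubated 1 h at ambient temperature with recombinant human IL-1β at 2λ EC80 before adding human lung fibroblast MRC5 cells (3000/well) in EMEM with 0.025% BSA. After overnight culture at 37 °C, 5% CO2, secreted IL-6 in conditioned medium was measured by AlphaLISA; IC50 from 4-parameter logistic fits.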
In general terms: Bead proximity is the source of the signal in Alpha formats.
Take `C[C@@H](c1c[nH]c2cccc(F)c12)[C@@H]1NC(=O)[C@@H]2C[C@H](F)CN2C(=O)CNC(=O)[C@H](Cc2ccc(C(=O)O)cc2)NC(=O)[C@H](Cc2ccncc2)NC(=O)[C@H](Cc2ccc(-c3ccc(C(=O)O)cc3)cc2)NC(=O)[C@H]2C[C@@H](Cc3ccc(F)cc3)CN2C(=O)CNC(=O)[C@H](CCN)NC(=O)[C@H](CCC(N)=O)NC(=O)[C@H](Cc2cncnc2)NC(=O)C(C)(C)NC(=O)[C@H](Cc2c[nH]c3ccccc23)NC(=O)[C@H](CO)NC(=O)[C@](C)(CCN)NC1=O` [Example 129] (cyclo([Bip(4'-COOH)][4Pal][Phe(4-COOH)]G[Pro(cis-4-F)][Trp(βS-Me,4-F)][X10]SW[Aib][Ala(pyrimidin-5-yl)]Q[Dab]G[dPro(4R-Bzl(4-F))])): the pIC50 was 10.72.

Regarding `C[C@@H](c1c[nH]c2cccc(F)c12)[C@@H]1NC(=O)[C@@H]2C[C@H](F)CN2C(=O)CNC(=O)[C@H](Cc2ccc(C(=O)O)cc2)NC(=O)[C@H](Cc2ccncc2)NC(=O)[C@H](Cc2ccc(-c3ccc(C(=O)O)cc3)cc2)NC(=O)[C@H]2C[C@@H](Cc3ccc(F)cc3)CN2C(=O)CNC(=O)[C@H](CCN)NC(=O)[C@H](CCC(N)=O)NC(=O)[C@H](Cc2cncnc2)NC(=O)[C@](C)(CCN)NC(=O)[C@H](Cc2c[nH]c3ccccc23)NC(=O)[C@H](CO)NC(=O)C(C)(C)NC1=O` [Example 130] (cyclo([Bip(4'-COOH)][4Pal][Phe(4-COOH)]G[Pro(cis-4-F)][Trp(βS-Me,4-F)][Aib]SW[X10][Ala(pyrimidin-5-yl)]Q[Dab]G[dPro(4R-Bzl(4-F))])), the pIC50 is 10.41. As for `C[C@@H](c1c[nH]c2cccc(F)c12)[C@@H]1NC(=O)[C@@H]2C[C@H](F)CN2C(=O)CNC(=O)[C@H](Cc2ccc(C(=O)O)cc2)NC(=O)[C@H](Cc2ccncc2)NC(=O)[C@H](Cc2ccc(-c3ccc(C(=O)O)cc3)cc2)NC(=O)[C@H]2C[C@@H](Cc3ccc(F)cc3)CN2C(=O)CNC(=O)[C@H](CCN)NC(=O)[C@H](CCC(N)=O)NC(=O)[C@H](Cc2cncnc2)NC(=O)C(C)(C)NC(=O)[C@H](Cc2c[nH]c3ccccc23)NC(=O)[C@H](CO)NC(=O)[C@@](C)(CCN)NC1=O` [Example 131] (cyclo([Bip(4'-COOH)][4Pal][Phe(4-COOH)]G[Pro(cis-4-F)][Trp(βS-Me,4-F)][dαMeDab]SW[Aib][Ala(pyrimidin-5-yl)]Q[Dab]G[dPro(4R-Bzl(4-F))])), the figure is 10.72; as for `C[C@@H](c1c[nH]c2cccc(F)c12)[C@@H]1NC(=O)[C@@H]2C[C@H](F)CN2C(=O)CNC(=O)[C@H](Cc2ccc(C(=O)O)cc2)NC(=O)[C@H](Cc2ccncc2)NC(=O)[C@H](Cc2ccc(-c3ccc(C(=O)O)cc3)cc2)NC(=O)[C@H]2C[C@@H](Cc3ccc(F)cc3)CN2C(=O)CN(C)C(=O)[C@H](CCN)NC(=O)[C@H](CCC(N)=O)NC(=O)[C@H](Cc2cncnc2)NC(=O)[C@](C)(CCCCN)NC(=O)[C@H](Cc2c[nH]c3ccccc23)NC(=O)[C@H](CCC(=O)O)NC(=O)C(C)(C)NC1=O` [Example 132] (cyclo([Bip(4'-COOH)][4Pal][Phe(4-COOH)]G[Pro(cis-4-F)][Trp(βS-Me,4-F)][Aib]EW[αMeK][Ala(pyrimidin-5-yl)]Q[Dab][Sar][dPro(4R-Bzl(4-F))])), 10.82. The value for `C[C@@H](c1c[nH]c2cccc(F)c12)[C@@H]1NC(=O)[C@@H]2C[C@H](F)CN2C(=O)CNC(=O)[C@H](Cc2ccc(C(=O)O)cc2)NC(=O)[C@H](Cc2ccncc2)NC(=O)[C@H](Cc2ccc(-c3ccc(C(=O)O)cc3)cc2)NC(=O)[C@H]2C[C@@H](Cc3ccc(F)cc3)CN2C(=O)CNC(=O)[C@H](CCN)NC(=O)[C@H](CCC(N)=O)NC(=O)[C@H](Cc2cncnc2)NC(=O)[C@](C)(CCCCN)NC(=O)[C@H](Cc2c[nH]c3ccccc23)NC(=O)[C@H](CCO)NC(=O)C(C)(C)NC1=O` [Example 133] (cyclo([Bip(4'-COOH)][4Pal][Phe(4-COOH)]G[Pro(cis-4-F)][Trp(βS-Me,4-F)][Aib][hSer]W[αMeK][Ala(pyrimidin-5-yl)]Q[Dab]G[dPro(4R-Bzl(4-F))])) was 10.68. The value for `C[C@@H]1NC(=O)C(C)(C)NC(=O)[C@H]([C@@H](C)c2c[nH]c3cccc(F)c23)NC(=O)[C@@H]2C[C@H](F)CN2C(=O)CNC(=O)[C@H](Cc2ccc(C(=O)O)cc2)NC(=O)[C@H](Cc2ccncc2)NC(=O)[C@H](Cc2ccc(-c3ccc(C(=O)O)cc3)cc2)NC(=O)[C@H]2C[C@@H](Cc3ccc(F)cc3)CN2C(=O)CNC(=O)[C@H](CCN)NC(=O)[C@H](CCC(N)=O)NC(=O)[C@H](Cc2cncnc2)NC(=O)[C@](C)(CCCCN)NC(=O)[C@H](Cc2c[nH]c3ccccc23)NC1=O` [Example 134] (cyclo([Bip(4'-COOH)][4Pal][Phe(4-COOH)]G[Pro(cis-4-F)][Trp(βS-Me,4-F)][Aib]AW[αMeK][Ala(pyrimidin-5-yl)]Q[Dab]G[dPro(4R-Bzl(4-F))])) was 10.68. Take `CC(C)[C@@H]1NC(=O)C(C)(C)NC(=O)[C@H]([C@@H](C)c2c[nH]c3cccc(F)c23)NC(=O)[C@@H]2C[C@H](F)CN2C(=O)CNC(=O)[C@H](Cc2ccc(C(=O)O)cc2)NC(=O)[C@H](Cc2ccncc2)NC(=O)[C@H](Cc2ccc(-c3ccc(C(=O)O)cc3)cc2)NC(=O)[C@H]2C[C@@H](Cc3ccc(F)cc3)CN2C(=O)CNC(=O)[C@H](CCN)NC(=O)[C@H](CCC(N)=O)NC(=O)[C@H](Cc2cncnc2)NC(=O)[C@](C)(CCCCN)NC(=O)[C@H](Cc2c[nH]c3ccccc23)NC1=O` [Example 135] (cyclo([Bip(4'-COOH)][4Pal][Phe(4-COOH)]G[Pro(cis-4-F)][Trp(βS-Me,4-F)][Aib]VW[αMeK][Ala(pyrimidin-5-yl)]Q[Dab]G[dPro(4R-Bzl(4-F))])): the pIC50 is 10.46. The value for `CC[C@@H](C)[C@@H]1NC(=O)C(C)(C)NC(=O)[C@H]([C@@H](C)c2c[nH]c3cccc(F)c23)NC(=O)[C@@H]2C[C@H](F)CN2C(=O)CNC(=O)[C@H](Cc2ccc(C(=O)O)cc2)NC(=O)[C@H](Cc2ccncc2)NC(=O)[C@H](Cc2ccc(-c3ccc(C(=O)O)cc3)cc2)NC(=O)[C@H]2C[C@@H](Cc3ccc(F)cc3)CN2C(=O)CNC(=O)[C@H](CCN)NC(=O)[C@H](CCC(N)=O)NC(=O)[C@H](Cc2cncnc2)NC(=O)[C@](C)(CCCCN)NC(=O)[C@H](Cc2c[nH]c3ccccc23)NC1=O` [Example 136] (cyclo([Bip(4'-COOH)][4Pal][Phe(4-COOH)]G[Pro(cis-4-F)][Trp(βS-Me,4-F)][Aib][aIle]W[αMeK][Ala(pyrimidin-5-yl)]Q[Dab]G[dPro(4R-Bzl(4-F))])) was 10.57. As for `C[C@@H](O)[C@@H]1NC(=O)C(C)(C)NC(=O)[C@H]([C@@H](C)c2c[nH]c3cccc(F)c23)NC(=O)[C@@H]2C[C@H](F)CN2C(=O)CNC(=O)[C@H](Cc2ccc(C(=O)O)cc2)NC(=O)[C@H](Cc2ccncc2)NC(=O)[C@H](Cc2ccc(-c3ccc(C(=O)O)cc3)cc2)NC(=O)[C@H]2C[C@@H](Cc3ccc(F)cc3)CN2C(=O)CNC(=O)[C@H](CCN)NC(=O)[C@H](CCC(N)=O)NC(=O)[C@H](Cc2cncnc2)NC(=O)[C@](C)(CCCCN)NC(=O)[C@H](Cc2c[nH]c3ccccc23)NC1=O` [Example 137] (cyclo([Bip(4'-COOH)][4Pal][Phe(4-COOH)]G[Pro(cis-4-F)][Trp(βS-Me,4-F)][Aib]TW[αMeK][Ala(pyrimidin-5-yl)]Q[Dab]G[dPro(4R-Bzl(4-F))])), the figure is 10.66.
